# From patent US20090062222A1, “Methods for Sensitizing Cancer Cells to Inhibitors” (TRUSTEES OF BOSTON UNIVERSITY, priority 2005, published 2009)
# Like-named read-outs stand apart in the source and are kept apart here. Where a SMILES comes first, the peptide text is derived from it. The star is where a group is joined. Cbz = O=C(OCc1ccccc1)*
# Columns and labels:
# CHO cells = assay: Toxicity in CHO cells; type: cell-based; conditions: for IC50: Cricetulus griseus, read-out: IC50 toxicity
# From the text: Three of these compounds, including emetine, tubulosine, and NZ28, have significant structural similarity.
# [1] = test system: HSP72 induction (CHO cells); assay: Inhibition of Hsp72 induction by heat shock in CHO cells (immunoblotting); type: cell-based; conditions: for IC50 / Inhibition of Hsp72 induction, second step of the screening: CHO cells; for Inhibition of Hsp72 induction by heat shock, NCI similarity set: concentrations between 2 and 10 μM; for Inhibition of Hsp72 induction, second step of the screening: 2 μM, 45° C. 10 min, then 6 hours at 37° C.
# PC-3 cells [2] = assay: Apoptosis by PARP cleavage in PC-3 cells
# [3] = test system: HSF1-activated Hsp70B promoter; assay: HSF1 activity: luciferase reporter under Hsp70B promoter in PC-3 cells after heat shock; conditions: added 5 hours before 45° C. 10 min, overnight recovery
# CMV-driven GFP = assay: General protein synthesis: CMV-driven GFP expression in CHO cells; type: cell-based; conditions: added 16 hours post-infection, 24 hours, NZ28 2 μM, emunin 10 μM
# MM.1S cells = assay: Apoptosis by PARP cleavage in MM.1S cells
# HSP72 [4] = assay: HSP72 induction in MM.1S cells (heat shock, proteasome or HSP90 inhibitors), immunoblotting; type: cell-based, human; conditions: for inhibition at 10 µM: Homo sapiens, MM1.S, read-out: HSP72 inhibition, by Emunin (10 μM), MM.1s; for HSP72 induction by the drug: 16 hours
# PC-3 cells [5] = assay: Clonogenic survival of PC-3 cells
# HSP72 [6] = assay: HSP72 induction in PC-3 cells (heat shock, proteasome or HSP90 inhibitors), immunoblotting; type: cell-based, human; conditions: for inhibition at 10 µM: Homo sapiens
# HSP27 = HSP27 induction by proteasome and HSP90 inhibitors in MM.1S cells, immunoblotting; conditions: VELCADE or Radicicol, emunin 10 μM, NZ28 2 μM added 5 hours before
# protein synthesis = conditions: cited from earlier work
# HCT-116 cells = assay: Apoptosis by PARP cleavage in HCT-116 cells; type: cell-based, human
# From the text: Sensitization to proteasome and Hsp90 inhibitors was seen when we tested additional cancer cells lines. In fact, depletion of HSF1 by treatment with siRNA in either a distinct prostate carcinoma line DU-145 or colon carcinoma HCT-116 cells led to suppression of the heat shock response and increased sensitivity to MG132 and 17-AAG (FIG. 2). […] Depletion of HSF1 in these cells led to a dramatic reduction of the constitutive Hsp72 levels (FIG. 2B) and very strong sensitization to the drugs (FIGS. 2C, 2D, and 2E).
# [7] = Cricetulus griseus, heat shock, read-out: IC50 HSP72 Induction Inhibition (CHO cells)
# [8] = Cricetulus griseus, heat shock (FIGS. 3A and 3B), read-out: IC50 for inhibition of Hsps induction
smiles,measurement,setting,value
COc1cc2c(cc1OC)C(CC1=CCN3CCc4ccccc4C3C1)NCC2 (centres unmarked) [NZ60],IC50,CHO cells; CHO cells,< 2000 nM
same,IC50,[1]; [7],> 10 µM
CCC1CN2CCc3cc(OC)c(OC)cc3C2CC1C1c2cc(OC)c(OC)cc2CCN1C(=O)CNC(=O)OC(C)(C)C (centres unmarked) [NZ71],Sensitization of si-HSF1 PC-3 cells to MG-132,PC-3 cells [2]; HSF1-depleted PC-3 cells,no apparent sensitization
same,"PARP cleavage, MG132 and emunin","PC-3 cells [2]; PC-3, 2 days",50%
same,Sensitization to radicicol,PC-3 cells [2]; PC-3 cells,little sensitization
same,Inhibition of luciferase induction by heat shock (Hsp70B promoter reporter),[3],about 40%
same,Cell growth inhibition,CHO cells; CHO cells,very little cell growth inhibition
same,Toxicity,CHO cells; CHO cells,non-toxic
same,IC50,CHO cells; CHO cells,> 10000 nM
same,Inhibition of GFP expression (CMV promoter),CMV-driven GFP,No significant inhibition of GFP expression
same,inhibition at 10 µM,"[1]; Cricetulus griseus, 10 min, CHO, Heat Shock 45° C., 10 min, 10 μM, read-out: HSP72 inhibition, by Emunin (10 μM)",95%
same,IC50,[1]; [8],5 µM
same,IC50,[1]; [7],5 µM
same,"Inhibition of Hsp72 induction by heat shock, NCI similarity set",[1],inhibit Hsp72 induction
same,"PARP cleavage, emunin alone",MM.1S cells,did not cause PARP cleavage
same,"PARP cleavage, emunin and VELCADE together","MM.1S cells; VELCADE 5 nM + 10 μM emunin, overnight",70%
same,"PARP cleavage, radicicol and emunin","MM.1S cells; radicicol 0.5 μM + 10 μM emunin, 24 hours",about 50%
same,inhibition at 10 µM,"HSP72 [4]; 4 min, Heat Shock 45° C., 4 min",90%
same,inhibition at 10 µM,HSP72 [4]; HSP90 Inhibitor Radicicol 0.8 μM,90%
same,inhibition at 10 µM,HSP72 [4]; Proteasome Inhibitor VELCADE 5 nM,95%
same,Inhibition of Hsp72 induction in response to Hsp90 inhibitors radicicol and 17-AAG,HSP72 [4]; MM.1S blocked stronger than PC-3,inhibited induction of Hsp72
same,Inhibition of HSP72 induction by proteasome inhibitors,"HSP72 [4]; MM.1S, VELCADE or MG132 for 16 hours",almost completely inhibited HSP72 induction
same,"Colony forming ability, emunin alone",PC-3 cells [5],did not affect the colony forming ability
same,inhibition at 10 µM,"HSP72 [6]; PC-3, 20 min, read-out: HSP72 inhibition, by Emunin (10 μM), PC-3, Heat Shock 45° C., 20 min",80%
same,inhibition at 10 µM,"HSP72 [6]; PC-3, read-out: HSP72 inhibition, by Emunin (10 μM), PC-3, HSP90 Inhibitor 17-AAG 2 μM",60%
same,inhibition at 10 µM,"HSP72 [6]; PC-3, read-out: HSP72 inhibition, by Emunin (10 μM), PC-3, Proteasome Inhibitor MG132 1 μM",80%
same,Inhibition of Hsp72 induction by 17-AAG,HSP72 [6]; PC-3 cells,only weak inhibition
same,Inhibition of Hsp27 induction,HSP27,inhibit HSP72 and HSP27 induction
"CCC1CN2CCc3cc(OC)c(OC)cc3C2CC1CC1NCCc2cc(O)c(OC)cc21 (stereo not drawn) [Isocephaeline, Emetan-6′-ol, 7′,10,11-trimethoxy-,(1′beta)-]",IC50,CHO cells; CHO,< 500 nM
same,IC50,[1]; [7],< 0.5 µM
same,"Inhibition of Hsp72 induction by heat shock, NCI similarity set",[1],inhibit Hsp72 induction
CCC1=C(C)CC2c3cc(OC)c(OC)cc3CCN2C1 (centres unmarked) [NZ61],IC50,CHO cells; CHO cells,< 2000 nM
same,IC50,[1]; [7],> 10 µM
"CCC1=C(CC2NCCc3cc(OC)c(OC)cc32)CC2c3cc(OC)c(OC)cc3CCN2C1 (centres unmarked) [dehydroemetine, reference compound]",IC50,CHO cells; CHO cells,< 500 nM
same,IC50,[1]; [7],< 0.5 µM
same,"Inhibition of Hsp72 induction by heat shock, NCI similarity set",[1],inhibit Hsp72 induction
"CCC1CN2CCc3cc(OC)c(OC)cc3C2CC1CC1NCCc2cc(OC)c(OC)cc21 (centres unmarked) [Emetine, reference compound]",Concentration at which protein synthesis is inhibited,protein synthesis,above 10 μM
same,Toxicity in an apoptotic assay,CHO cells,showed toxicity
same,IC50,CHO cells; CHO cells,< 250 nM
same,"Inhibition of Hsp72 induction, second step of the screening",[1],inhibit Hsp72 induction
same,IC50,[1]; [7],< 0.25 µM
COc1cc2c(cc1OC)CN1CCc3cc(OC)c(OC)cc3C1C2 (centres unmarked) [NZ50],IC50,CHO cells; CHO cells,< 2000 nM
same,IC50,[1]; [7],> 10 µM
CCC1CN2CCc3cc(OC)c(OC)cc3C2CC1CC1NCCc2c1[nH]c1ccc(O)cc21 (centres unmarked) [tubulosine],Toxicity in an apoptotic assay,CHO cells,showed toxicity
same,IC50,CHO cells; CHO,250 nM
same,"Inhibition of Hsp72 induction, second step of the screening",[1],inhibit Hsp72 induction
same,IC50,[1]; [7],0.5 µM
"O=c1c(O)c(-c2ccc(O)c(O)c2)oc2cc(O)cc(O)c12 [quercetin, reference compound]",IC50,[1]; [8],~50 µM
"CC(C)C[C@H](NC(=O)[C@H](Cc1ccccc1)NC(=O)c1cnccn1)B(O)O [VELCADE®, bortezomib, reference compound]","PARP cleavage, VELCADE alone","MM.1S cells; 5 nM, overnight",30%
same,HSP72 induction by the drug,HSP72 [4]; MM.1S,Strong induction
"CC(C)C[C@@H](C=O)NC(=O)[C@H](CC(C)C)NC(=O)[C@H](CC(C)C)NC(=O)OCc1ccccc1 [MG132, N-carbobenzoxyl-Leu-Leu-leucinal, reference compound] (Cbz-Leu-Leu-Leu-aldehyde)","PARP cleavage, MG132 alone","PC-3 cells [2]; PC-3, 2 days",approximately 10%
same,HSP72 induction by the drug,HSP72 [4]; MM.1S,Strong induction
same,"Sensitivity of si-HSF1 cells, colony forming ability",PC-3 cells [5]; between 0.25 μM and 2 μM,very strong enhancement of sensitivity
same,Hsp72 induction by the drug,"HSP72 [6]; PC-3 RetroQ cells, 24 hours",strongly induced
C[C@@H]1C[C@H]2O[C@@H]2/C=C\C=C\C(=O)Cc2c(Cl)c(O)cc(O)c2C(=O)O1 [radicicol],Sensitivity of control cells,HCT-116 cells; HCT-116 control cells,resistant
same,Sensitivity of si-HSF1 cells,HCT-116 cells; HCT-116 si-HSF1 cells,quite sensitive
same,"PARP cleavage, radicicol alone","MM.1S cells; 0.5 μM, 24 hours",10%
"C=CCNC1=C2C[C@@H](C)C[C@H](OC)[C@H](O)[C@@H](C)/C=C(\C)[C@H](OC(N)=O)[C@@H](OC)/C=C\C=C(/C)C(=O)NC(=CC1=O)C2=O [17-AAG, 17-(allylamino)-17-demethoxygeldanamycin, reference compound]",Increase in PARP cleavage on depletion of HSF1,"PC-3 cells [2]; PC-3, 0.25 μM, 24 hours",100%
same,"Sensitization by si-HSF1, colony forming ability",PC-3 cells [5]; wide range of concentrations,about 5 fold
same,Hsp72 induction by the drug,HSP72 [6],strongly induced
COc1ccc(CC2NCCc3cc(OC)c(OC)cc32)cc1OC (centres unmarked) [NZ54],IC50,CHO cells; CHO cells,< 2000 nM
same,IC50,[1]; [7],> 10 µM
"COc1cccc2c1C(=O)c1c(O)c3c(c(O)c1C2=O)C[C@@](O)(C(=O)CO)C[C@@H]3O[C@H]1C[C@H](N)[C@H](O)[C@H](C)O1 [doxorubicin, reference compound]",Sensitization to apoptosis by si-HSF1,PC-3 cells [2],little or no sensitization
CCC1CN2CCc3cc(OC)c(OC)cc3C2CC1CC1NCCc2c1[nH]c1ccc(OC)cc21 (centres unmarked) [NZ72],IC50,CHO cells; CHO cells,> 2000 nM
same,IC50,[1]; [7],2 µM
same,"Inhibition of Hsp72 induction by heat shock, NCI similarity set",[1],inhibit Hsp72 induction
COc1cc2c(cc1OC)C(CC1=C(c3ccccc3)CN3CCc4cc(OC)c(OC)cc4C3C1)NCC2 (centres unmarked) [NZ62],IC50,CHO cells; CHO cells,< 2000 nM
same,IC50,[1]; [7],> 10 µM
